{
  "source": "patent US20090029369A1",
  "about": "“GENETIC SELECTION SYSTEM TO IDENTIFY PROTEASES, PROTEASE SUBSTRATES AND PROTEASE INHIBITORS” (priority 2005, published 2009)",
  "molecules": {"B1": {"name": "human cytomegalovirus (CMV) protease, amino acids 1-256 of the 75 kDa precursor (protein)", "chain": "MTMDEQQSQAVAPVYVGGFLARYDQSPDEAELLLPRDVVEHWLHAQGQGQPSLSVALPLNINHDDTAVVGHVAAMQSVRDGLFCLGCVTSPRFLEIVRRASEKSELVSRGPVSPLQPDKVVEFLSGSYAGLSLSSRRCDDVEAATSLSGSETTPFKHVALCSVGRRRGTLAVYGRDPEWVTQRFPDLTAADRDGLRAQWQRCGSTAVDASGDPFRSDSYGLLGNSVDALYIRERLPKLRYDKQLVGVTERESYVKA"}, "B2": {"name": "inactive version of the CMV protease harbouring the S(132) A mutation at the catalytic site (protein)", "chain": "B1 chain with S132A"}},
  "key": {"[1]": {"molecular_target": "T1, CMV protease (Human cytomegalovirus, UniProt P16753)", "assay": "yeast growth selection assay: RLY07 cells co-expressing Trp1(194)-M substrate and CMV protease", "assay_type": "cell-based", "parameters": "The CMV protease gene encoding amino acids 1-256 of the 75 kDa precursor was obtained by PCR from CMV infected MRC5 human cells; expressed in transfected cells; host or cells: Saccharomyces cerevisiae RLY07 (pdr5Δ snq2Δ yor1Δ); Protease on CEN4-ARS1 plasmid pMH51 under the GAL1 promoter", "settings": "for effect of increasing concentrations on cell proliferation: concentration series, active protease, ~2 days at 30° C., 96-well plates", "experimental": "(§1) RLY07 cells transformed with the different TRP1-M constructs and a plasmid encoding the CMV protease or the empty vector were inoculated in 3 ml of 2% galactose -ura -leu medium and grown at 30° C. to OD600 1. They were washed with 5 ml H2O and resuspended in 2% galactose -ura -leu -trp medium supplemented with 10% glycerol (=growth selection medium, glycerol promotes CMV protease dimerisation and subsequent proteolytic activity) and diluted to a start OD600 0.01. For the experiments with the coxackievirus 3C protease, preculture medium was 2% glucose -ura -leu, assay medium was 2% glucose -ura -leu trp, and inoculation OD600 0.001. At time zero, assay cultures at the aforesaid start OD600 were distributed in 96-well microtiter plates, with a volume of 150 μl per well, and incubated without shaking at 30° C. At the time points indicated in the “results” section, plates were shaken to resuspend cells before being submitted to light scattering measurement at 595 nm in a Tecan Genios reader for determining cell density.\nCMV protease inhibitors BI31 and BI36 (Boeringher Ingelheim, Quebec) were dissolved in DMSO and added to the assay cultures at time zero of the growth assay. Final DMSO concentration was 1%.\nRLY07 cells co-expressing Trp1^194-M substrate and the CMV protease were incubated with a concentration series of BI31 and BI36 in 96-well microtiter plates and cultivated under selective conditions. […] Importantly, despite this toxicity BI31 still stimulates growth of cells expressing the active protease (triangles). For example, at 50 μM cell density is multiplied by a factor 4 despite 25% toxicity."}, "[2]": {"molecular_target": "T1, CMV protease", "assay": "Western blot of Trp1(194)-M substrate cleavage by CMV protease in yeast", "assay_type": "cell-based", "parameters": "The CMV protease gene encoding amino acids 1-256 of the 75 kDa precursor was obtained by PCR from CMV infected MRC5 human cells; expressed in transfected cells; host or cells: Saccharomyces cerevisiae RLY07; Protease on plasmid pMH51 under the GAL1 promoter", "experimental": "Yeast whole cell extracts were prepared as described by Burke et al. (Burke, Dawson et al. 2000). Proteins were separated by SDS-PAGE and Western blot analysis was performed according to standard procedures (Ausubel et al., 2003, Current Protocols in Molecular Biology). An HA-monoclonal antibody from Sigma (clone 3F10) was used at a concentration of 30 ng/ml to detect expression of TRP1(194)-M.\nThe Western blot was performed to provide biochemical evidence for inhibition of cleavage of CMV protease by compound BI36 (FIG. 5B). […] As in the Western blot on FIG. 3C, unfortunately no cleavage products could be detected."}, "[3]": {"test_system": "RLY07 cells", "assay": "growth of RLY07 cells expressing the inactive, point-mutated CMV protease (toxicity control)", "assay_type": "cell-based, S. cerevisiae", "experimental": "as §1\nCMV protease inhibitors BI31 and BI36 (Boeringher Ingelheim, Quebec) were dissolved in DMSO and added to the assay cultures at time zero of the growth assay. Final DMSO concentration was 1%. […]"}, "[4]": {"molecular_target": "Trp1-2C/3A substrate: yeast Trp1p with the 13 amino acid coxsackievirus B3 2C/3A cleavage sequence inserted after Gly194 (Saccharomyces cerevisiae; coxsackievirus B3) (UniProt P00912)", "assay": "cell-based or functional assay"}, "[5]": {"molecular_target": "Trp1(194)-M (short): yeast Trp1p with the 13 amino acid CMV M-site cleavage sequence inserted after Gly194 (Saccharomyces cerevisiae; human cytomegalovirus) (UniProt P00912)", "assay": "cell-based or functional assay"}, "[6]": {"molecular_target": "Trp1(194)-M (long): yeast Trp1p with the 39 amino acid CMV M-site cleavage sequence inserted after Gly194 (Saccharomyces cerevisiae; human cytomegalovirus) (UniProt P00912)", "assay": "cell-based or functional assay"}, "[7]": {"molecular_target": "T2, Trp1(194)-M with HA tags at both the N-terminus and the C-terminus, P00912", "T2 chain": "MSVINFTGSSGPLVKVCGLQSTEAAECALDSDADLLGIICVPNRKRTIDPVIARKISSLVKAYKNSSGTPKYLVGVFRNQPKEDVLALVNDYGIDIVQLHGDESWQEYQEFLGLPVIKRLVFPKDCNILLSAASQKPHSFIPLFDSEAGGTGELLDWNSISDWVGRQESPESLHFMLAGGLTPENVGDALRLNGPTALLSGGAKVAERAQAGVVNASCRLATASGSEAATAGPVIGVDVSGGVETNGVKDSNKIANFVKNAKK"}, "[8]": {"molecular_target": "point-mutated Trp1(194)-M (A→E) substrate with HA tags, as blotted, P00912"}},
  "note": "Numbering of substitutions follows the chain as printed.",
  "data": [
    {"molecule": "CN(Cc1ccc([N+](=O)[O-])cc1)C(=O)N1C(=O)C[C@@H]1CSc1nnnn1C", "note": "[BI36]", "values": [
      {"measurement": "EC50", "setting": "[1]", "value": 31, "unit": "µM"},
      {"measurement": "CMV protease inhibition judged from OD600 versus cells expressing inactive protease", "setting": "[1]; 100 μM", "value": "almost completely inhibited"},
      {"measurement": "effect of increasing concentrations on cell proliferation", "setting": "[1]", "value": "dose-dependent increase of cell proliferation"},
      {"measurement": "inhibition of proteolysis (Western blot)", "setting": "[2]; 10 μM", "value": "only slightly inhibited"},
      {"measurement": "inhibition of cleavage (Western blot)", "setting": "[2]; 100 μM", "value": "inhibits the cleavage almost completely"},
      {"measurement": "inhibition of substrate cleavage (Western blot)", "setting": "[2]; concentration series 100 μM, 30 μM, 10 μM", "value": "prevented substrate cleavage in a dose-dependent manner"}
    ]},
    {"molecule": "CN(Cc1ccc(C(F)(F)F)cc1)C(=O)N1C(=O)C[C@@H]1CSc1ncccn1", "note": "[BI31]", "values": [
      {"measurement": "toxicity", "setting": "[3]; 50 μM", "value": 25, "unit": "%"},
      {"measurement": "toxic effect on cells (decrease of cell proliferation)", "setting": "[3]; increasing concentrations, cells expressing inactive protease", "value": "dose-dependent toxic effect"},
      {"measurement": "factor by which cell density is multiplied", "setting": "[1]; 50 μM, cells expressing the active protease", "value": 4},
      {"measurement": "effect of increasing concentrations on cell proliferation", "setting": "[1]", "value": "dose-dependent increase of cell proliferation"}
    ]},
    {"molecule": "cysteine protease 3C from coxsackievirus B3 (from UniProt P03313 1541-1723) (enzyme)", "values": [
      {"measurement": "cell growth in selective medium lacking tryptophan after 27 h at 30° C., against cells expressing only the substrate", "setting": "[4]", "value": 60, "unit": "%"}
    ]},
    {"molecule": "human cytomegalovirus (CMV) protease, amino acids 1-256 of the 75 kDa precursor (from UniProt P16753 1-256) (enzyme)", "values": [
      {"measurement": "OD600 of co-expressing RLY07 cells in liquid selective medium after 36 hours, against control cells with an empty plasmid instead of the protease plasmid", "setting": "[5]", "value": 35, "unit": "%"},
      {"measurement": "proliferation reduction in medium lacking tryptophan for 38 h (FIG. 3B, lanes 1, 2)", "setting": "[5]", "value": 35, "unit": "%"},
      {"measurement": "proliferation reduction in medium lacking tryptophan for 38 h", "setting": "[6]", "value": 85, "unit": "%"}
    ]},
    {"molecule": "B1", "values": [
      {"measurement": "anti-HA Western blot of yeast extracts, full-length 33 kDa substrate band (FIG. 3C, lane 2)", "setting": "[7]", "value": "Co-expression of active CMV protease (lane 2) causes disappearance of the full-length substrate"},
      {"measurement": "anti-HA Western blot, 33 kDa band (FIG. 5B, lane 2)", "setting": "[7]", "value": "co-expressing the active protease instead of the inactive version causes disappearance of the 33 kDa band"},
      {"measurement": "anti-HA Western blot of yeast extracts, full-length substrate band (FIG. 3C, lane 4)", "setting": "[8]", "value": "active protease has no effect on the point-mutated Trp1(194)-M (A→E) substrate, as the band is also present"}
    ]},
    {"molecule": "B2", "values": [
      {"measurement": "anti-HA Western blot of yeast extracts, full-length 33 kDa substrate band (FIG. 3C, lane 3)", "setting": "[7]", "value": "the inactive CMV protease does not cleave the Trp1(194)-M substrate (since the full-length substrate band does not disappear)"},
      {"measurement": "anti-HA Western blot, 33 kDa band (FIG. 5B, lane 1)", "setting": "[7]", "value": "A 33 kDa band corresponds to the full-length Trp1(194)-M substrate upon co-expression with inactive CMV protease"}
    ]}
  ]
}
